PMC8465290, “Zoledronic Acid as a Novel Dual Blocker of KIR6.1/2-SUR2 Subunits of ATP-Sensitive K^+ Channels: Role in the Adverse Drug Reactions” (Pharmaceutics, 2021)

Experiments:
[1] = Pharmacovigilance analysis of A.D.R. in EudraVigilance database; parameters: species or system human; settings: for rhabdomyolysis, % of A.D.R.: within musculoskeletal and connective tissue disorders
From the text: All coding preferred terms per System Organ Class (S.O.C.) were screened in the EudraVigilance database (http://www.adrreports.eu/ accessed on 1 May 2021), and those potentially associated with KATP channel blocking actions were reported and subject to analysis.
The data were extracted from EudraVigilance, collected, and analyzed on Microsoft 365 Excel software package (Microsoft 10.00). The not specified category was not included in the calculation. The duplication of a specific report per S.O.C. was evaluated manually and excluded from the analysis.
The Proportional Reporting Ratio (P.R.R.) was calculated using the following equation: a/(a+c)/b/(b + d) where a is the reaction of interest to a given drug of interest, b is the reaction of interest for all other drugs in the class, c are all other reactions to a given drug of interest, and d are all other reactions to all other drugs in the class. Signal definition: P.R.R. ≥ 2, a minimum of three ratios/cases for the reaction of interest, X^2 ≥ 4. No signal is identified if P.R.R. is = 1 [47].

[2] = system: KATP channels of femora primary bone cells; assay: KATP currents in cell-attached patches of femora (long bone) primary bone cells; type: cell-based, mice; settings: C-A patches, nanomolar concentrations, Figure 1C
Method: The culture of primary bone cells from adult mice was obtained from long bones (tibia and femur) and calvaria, as previously described. Bones were collected, cleaned, and flushed for removing the internal bone marrow cells. Small bone pieces of around 1 mm^3 were treated with trypsin-EDTA 0.25% (w/v) for 1 h and with 0.2% collagenase solution for an additional hour in a shaking water bath to remove all remaining soft tissue and adherent cells. Clean bone pieces have been cultured in basal medium enriched with 50 µg/mL of ascorbic acid. Osteoblasts from femora (Figure S1A, Supplementary Material) and calvaria chips (Figure S1B) were positive to Alizarin red staining (Figure S1C). The marker of osteoblasts was positive, as tested by the PCR expression analysis on cell pellets (Figure S1D).
The solutions for whole-cell and cell attached patches were as follows. The pipette solution contained 132 mM KCl, 1 mM ethylene glycol-bis(β-aminoethylether)-N,N,N′,N′-tetraaceticacid (EGTA), 10 mM NaCl, 2 mM MgCl2, 10 mM HEPES, 1 mM Na2ATP, and 0.3 mM Na2GDP (pH = 7.2). The bath solution contained 142 mM NaCl, 2.8 mM KCl, 1 mM CaCl2, 1 mM MgCl2, 11 mM glucose, and 10 mM HEPES (pH = 7.4).
The whole-cell and cell-attached patch-clamp experiments were performed in asymmetrical K^+ ion concentration in physiological conditions using pipettes with the resistance of 3–5 MΩ.
Drug actions on the channel currents recorded during instantaneous I/V relationships were investigated by applying a depolarization protocol, in response to voltage pulses from −180 mV to +100 mV (Vm) in 20 mV steps. Currents were expressed as densities (pA/pF) to control for cell size/capacitance differences. All experiments were performed at room temperature (20–22 °C) and sampled at 2 kHz (filter = 1 kHz) using an Axopatch-1D amplifier equipped with a CV-4 headstage (Axon Instruments; Foster City, CA, USA). Drug solutions were applied using a fast perfusion system during the continuous monitoring of the seal resistance at 18–22 °C room temperature in excised patches. In whole-cell and cell-attached patch-clamp experiments, before recording, the cells were equilibrated for 10 s with the solution. Data acquisition and analysis were performed using pCLAMP 10 software suite (Axon Instruments; Foster City, CA, USA), as previously described. Seal resistance was continuously monitored during the experiment.
The percentage of KATP current inhibition induced by ZOL was calculated as (I CTRL-I drug)/(I CTRL-I BaCl2) × −100. The concentration response data of ZOL against different KATP channel currents were fitted by an algorithm using the non-linear dynamic fitting routine of Sigma Plot, 10.0.

[3] = within the KATP channel blockers

Row | hypoglycemia, % of the A.D.R. per S.O.C. [1] [%] | rhabdomyolysis, % of A.D.R. [1] [%] | Proportional Reporting Ratio (P.R.R.) hypoglycemia [1, 3] | Proportional Reporting Ratio (P.R.R.) palpitations [1, 3] | Proportional Reporting Ratio (P.R.R.) rhabdomyolysis [1, 3] | SMILES | Proportional Reporting Ratio (P.R.R.) arrhythmias [1, 3] | inhibition of KATP currents in C-A patches (in words) [2]
1 | 75.6 | 17.7 | ≥ 2 | – | – | CCC1=C(C)CN(C(=O)NCCc2ccc(S(=O)(=O)NC(=O)N[C@H]3CC[C@H](C)CC3)cc2)C1=O [glimepiride] | – | –
2 | 77.9 | 18.4 | ≥ 2 | ≥ 2 | ≥ 2 | CC(C)[C@H]1CC[C@H](C(=O)N[C@H](Cc2ccccc2)C(=O)O)CC1 [nateglinide] | ≥ 2 | –
3 | 84.6 | 17.8 | ≥ 2 | – | – | CCOc1cc(CC(=O)N[C@@H](CC(C)C)c2ccccc2N2CCCCC2)ccc1C(=O)O [repaglinide] | – | –
4 | – | – | – | – | – | CCCCNC(=O)NS(=O)(=O)c1ccc(C)cc1 [tolbutamide] | – | less effective inhibitor
